# In patent US12102612B2, “Pharmaceutical composition comprising hydroquinone derivative for preventing or treating obesity or nonalcoholic steatohepatitis” (BIOTOXTECH CO., LTD., priority 2018, dated 2024):
# “Also recorded” adds a separate entry of the source.
# Legend:
# mice = conditions: repeated for 13 weeks; cited from earlier work
# [1] = test system: nonalcoholic fatty liver in mice; conditions: cited from earlier work
# [2] = test system: MCD diet-fed NASH model (12 weeks); assay: Efficacy in NASH model fed with MCD diet for 12 weeks; format: in vivo, male C57BL/6 mice; conditions: MCD diet 12 weeks
# Source text: The duration of feeding MCD diet was extended to a total of 12 weeks to increase the induction level of NASH. To this end, male C57BL/6 mice at 7 weeks of age were fed with a methionine and choline-deficient diet for 8 weeks to induce nonalcoholic fatty liver and then subjected to the same repeat administration program at the same doses for 4 weeks as in Table 2.
# [3] = test system: MCD diet-fed NASH model (8 weeks); assay: Efficacy in NASH model fed with methionine and choline deficient (MCD) diet for 8 weeks; format: in vivo, male C57BL/6 mice; conditions: MCD diet 8 weeks; for alleviative effect on NASH / inhibitory activity against NASH: compared to the negative control, RSV and DDB complex 200 mg/kg
# Source text: A methionine and choline deficient (MCD) diet-fed model, in which steatosis has been induced as a result of the supply of a diet deficient in methionine and choline, which each play an important role in beta oxidation and very low-density lipoprotein, (VLDL) synthesis, is widely used as a model for observing an effect of alleviating NASH because it suffers from histopathologically serious lobular inflammation.
# An MCD diet (RESEARCH DIETS, Product No: A02082002B) was fed 7-week-old male C57BL/6 mice for 4 weeks to induce nonalcoholic fatty liver and then for an additional 4 weeks during which the hydroquinone derivative compound 2,3,5-trimethylhydroquinone-1-hexylether (compound 1) according to the present invention and the comparative control drugs were orally administered to the mice at the specific doses repeatedly as indicated for test groups G3-G8 in Table 2. Alleviative effects on NASH were assessed by clinicopathological and histopathological examinations.
# The normal group was fed with a normal diet (RESEARCH DIETS, Product No: A02082003B), but not the MCD diet. To the negative control, only the excipient 0.5% methyl cellulose (MC) aqueous solution was administered after the MCD diet was fed thereto. […] For resveratrol and the DDB hepatoprotectant, the daily dose was set forth to be 200 mg/kg.
# (§1) The liver tissues were resected from mice fed with MCD diet for 8 weeks and prepared into hematoxylin-eosin (H&E) stained slides, as in the histopathological examination method of Test Example 1. Based on the criteria of Table 1, changes in 1) steatosis, 2) lesions such as hepatic lobular inflammation, etc. (lobular inflammation), and 3) ballooning degeneration of hepatocytes (ballooning) were analyzed and the scores were summed to afford NAFLD activity scores for evaluating therapeutic effects on NASH.
# adult = assay: Clinical trial phase 1 (single and 14-day repetitive administration); format: in vivo, human; conditions: for abnormal responses (such as dyslipidemia) after repetitive administration: up to 1,000 mg per adult for 14 days
# [4] = test system: FFC diet-fed non-alcoholic steatohepatitis model; assay: Efficacy in fat-, fructose- and cholesterol-rich (FFC) diet-fed non-alcoholic steatohepatitis model; format: in vivo, male C57BL/6 mice
# Source text: FFC diet (fat-, fructose-, and cholesterol-rich diet) (RESEARCH DIETS, Product No.: D12079B) was fed to male C57BL/6 mice 6-7 weeks old for 16 weeks to induce nonalcoholic fatty liver. Only animals with a NAFLD activity score (NAS) of 3.2 or more were selected by biopsy. Two weeks after biopsy, the animals were divided into three test groups including a negative control injected with a 0.5% methyl cellulose (MC) aqueous solution only (FFC control) and compound 1 groups injected with a solution of compound 1 (2,3,5-trimethylhydroquinone-1-hexylether compound, 30 mg/kg and 200 mg/kg) in a 0.5% MC aqueous solution. Compound 1 was administered for a total of 2 months and evaluated for alleviative efficacy for NASH by histopathological examination.
# For histopathological examination, the mice were sacrificed and subjected to hepatectomy. The liver tissues thus obtained were prepared into hematoxylin-eosin (H&E) stained slides. In brief, the resected liver tissues were fixed in 4% paraformaldehyde at 4° C. for 24 hours, washed with flowing water, embedded into paraffin, and sectioned into blocks 3-4 μm thick. The sectioned tissue was attached to a coated slide, de-paraffinized with xylene, and rehydrated with graded alcohols (99%, 95%, 90%, 80%, and 70% ethanol (EtOH)) before histological staining. The sectioned tissues were stained with hematoxylin for 5 min and washed with flowing water for 5 min, following by destaining with 1% HCl alcohol and ammonia. Subsequently, the tissues were washed with flowing water for 10 min, counterstained with eosin for 1 min, and dehydrated in the reverse order of the hydration before mounting.
# The H&E-stained slides were histopathologically assessed under a microscope and scored according to the NAFLD activity score (NAS) criteria given in Table 1. NAFLD activity scores are expressed as a sum of assessment scores for changes in 1) steatosis, 2) lesions such as hepatic lobular inflammation, etc. (lobular inflammation), and 3) ballooning degeneration of hepatocytes (ballooning) and are widely used for evaluating the severity of NASH.
# rats [5] = assay: Toxicity assay of repetitive oral administration for 13 weeks; format: in vivo; conditions: repeated for 13 weeks
# beagle dogs = assay: Maximum tolerance dose in beagle dogs; format: in vivo
# [6] = test system: high-fat diet-fed obesity and NASH model; assay: Efficacy in obesity and NASH model fed with high-fat diet (HFD); format: in vivo, male C57BL/6 mice
# Experimental: High-fat diet with 60 kcal % (RESEARCH DIETS, Product No: D12492) was fed to 7-week-old male C57BL/6 mice for 16 weeks to induce nonalcoholic fatty liver, followed by repeatedly administering test substances, along with the high-fat diet, via an oral route for 9 weeks from weeks 17 to 25. Alleviative effects on NASH were assessed by clinicopathological and histopathological examinations.
# The test groups included a normal control which was not fed with HFD, but with a normal diet (10 kcal % fat diet, RESEARCH DIETS, Product No: D12450B), a negative control which was fed with HFD and then with the excipient 0.5% methyl cellulose (MC) aqueous solution alone, compound 1 (2,3,5-trimethylhydroquinone-1-hexylether)-administered groups (30, 100, 200 mg/kg), and comparative controls (obeticholic acid 30 mg/kg, pioglitazone 10 mg/kg, and DDB hepatoprotectant 200 mg/kg).
# During repeatedly oral administration of the test substances for 9 weeks as in the assay method of (1), the mice were observed and recorded for weight gain, food intake, and general symptoms.
# as §1, with “Liver” for “The liver”, “from HFD-fed” for “from”, “mice” for “mice fed with MCD diet for 8 weeks”
# [7] = test system: high-fat diet-induced insulin resistance; assay: Insulin resistance assay in high-fat diet-fed mice; format: in vivo, male C57BL/6 mice; conditions: week 7 of administration, vs negative control and other drug controls
# Experimental: An insulin resistance assay was conducted on week 7 of administration of compound 1 to examine the effect of compound 1 on the insulin resistance induced by high-fat diet. For the insulin resistance assay, the mice were fast for 4 hours and intraperitoneally injected with insulin (0.7 IU/kg), followed by measuring blood glucose levels every 30 min. Insulin resistance was digitized for quantitative comparison. In this regard, while pre-insulin blood levels were set forth to be baselines, areas under the curves of reduced blood glucose levels were digitized into iAUC values (FIG. 14). Here, a smaller iAUC value means higher insulin resistance and a larger iAUC value means higher insulin sensitivity.
# rats [8] = assay: Single-dose oral administration toxicity assay for rats; format: in vivo; conditions: single oral dose as high as 2000 mg/kg
# [9] = test system: normal persons and nonalcoholic fatty liver patients; conditions: 10-25 mg per adult; cited from earlier work
# [10] = test system: western diet NASH mouse models; conditions: cited from earlier work
# CD-1(ICR) mice = conditions: mouse, in vivo; cited from earlier work
smiles,measurement,setting,value
"CCc1ccc(CCOc2ccc(CC3SC(=O)NC3=O)cc2)nc1 (stereo not shown) [Pioglitazone, pioglitazone]",dose at which subject death occurred,mice,≥ 320 mg/kg
same,dose causing cardiac adverse effects,mice,≥ 100 mg/kg
same,dose that aggravates fatty liver,[1],25 mg/kg
"Oc1ccc(C=Cc2cc(O)cc(O)c2)cc1 [Resveratrol, resveratrol, reference compound]",alleviative effect on NASH,"[2]; 200 mg/kg, compared to the negative control",did not exhibit an alleviative effect on NASH
same,alleviative effect on NASH / inhibitory activity against NASH,[3],did not exhibit an alleviative effect on NASH
"CCCCCCOc1cc(C)c(O)c(C)c1C [compound 1, 2,3,5-trimethylhydroquinone-1-hexylether]",abnormal responses after single dose,"adult; single dose of up to 2,000 mg per adult",no abnormal responses were observed
same,abnormal responses (such as dyslipidemia) after repetitive administration,adult,"no abnormal responses, such as dyslipidemia, were reported; also recorded: no abnormal responses were observed"
same,abnormal responses (such as dyslipidemia) after repetitive administration,"adult; listed as 2,3,5-trimethylhydroquinone-1-hexylether",no abnormal responses were observed
same,lobular inflammatory cellular infiltration,"[2]; oral 30 and 200 mg/kg for 4 weeks, vs MCD control, dose-dependent, FIG. 7",reduced lobular inflammatory cellular infiltration
same,NAFLD activity scores,"[2]; vs MCD control, dose-dependent, FIG. 8",lowered NAFLD activity scores
same,anti-inflammatory effect compared to pioglitazone (PGZ) and obeticholic acid (OCA),"[2]; PGZ 10 mg/kg, OCA 30 mg/kg",excellent anti-inflammatory effect
same,ALT level,"[3]; 200 mg/kg, vs negative control and comparative control groups, FIG. 6",remarkably reduced
same,alleviative effect on NASH / inhibitory activity against NASH,[3],excellent inhibitory activity against NASH
same,effect of reducing lobular inflammatory cellular infiltration,"[3]; oral 30 and 200 mg/kg for 4 weeks, vs MCD control, FIG. 4",remarkable
same,NAFLD activity scores,[3]; FIG. 5,reduce
same,anti-inflammatory efficacy compared to pioglitazone (PGZ) and obeticholic acid (OCA),"[3]; PGZ 10 mg/kg, OCA 30 mg/kg",excellent anti-inflammatory efficacy
same,fatty liver,"[4]; 30 and 200 mg/kg for 2 months, dose-dependent, FIG. 2",alleviated
same,NAFLD activity scores,"[4]; 30 and 200 mg/kg for 2 months, dose-dependent, FIG. 3",alleviated
same,lobular inflammatory cellular infiltration (lobular inflammation),"[4]; compound 1 30 and 200 mg/kg for 2 months, vs FFC control, FIG. 1",decrease lobular inflammatory cellular infiltration
same,"side effects such as death, weight loss, organ failure",rats [5]; dose as high as 500 mg/kg,"did not invoke significant side effects; also recorded: no side effects such as death, weight loss, organ failure, etc. were detected"
same,"changes in weight gain, food consumption, urological and serological examinations","rats [5]; up to 500 mg/kg, FIG. 12",No changes attributed to the administration of compound 1 were detected
same,maximum tolerance dose,beagle dogs,"2,000 mg/kg"
same,suppressive effect on lobular inflammation,"[6]; 200 mg/kg, compared to the other drug groups",remarkably highly suppressive effect
same,fatty liver,"[6]; 30, 100, 200 mg/kg, vs HFD control, dose-dependent",alleviated
same,hepatic lobular cellular infiltration,"[6]; 30, 100, 200 mg/kg, vs HFD control, dose-dependent, FIG. 15",alleviated
same,blood levels of cholesterol,"[6]; HFD model, compared to the negative control, FIG. 19(A)",reduced
same,blood levels of triglyceride,"[6]; HFD model, compared to the negative control, FIG. 19(B)",reduced
same,ALT,"[6]; HFD model, relative to normal levels, FIG. 17",recovered
same,AST,"[6]; HFD model, relative to normal levels, FIG. 18",recovered
same,ALT levels vs the other drug controls,"[6]; HFD model, FIG. 17",further reduced
same,AST levels vs the other drug controls,"[6]; HFD model, FIG. 18",further reduced
same,accumulation of visceral fats such as epididymal fats (epididymal fat weights),"[6]; autopsy after 9 weeks oral administration, FIG. 11",excellent effect of inhibiting the accumulation of visceral fats
same,"therapeutic effects on NASH by histopathological examinations (lobular inflammation, NAFLD activity scores)","[6]; compared to the other drugs, FIGS. 15 and 16",excellent therapeutic effects on NASH
same,weight gain increments resulting from the intake of high-fat diet,"[6]; oral 30, 100, 200 mg/kg for 9 weeks, vs HFD control, FIG. 9",remarkably reduced
same,blood glucose level upon insulin administration,"[7]; 4 h fast, insulin 0.7 IU/kg i.p., FIG. 13",reduced in blood glucose level more fast
same,suppressive effect on high-fat diet-induced insulin resistance (iAUC values),[7]; FIG. 14,higher suppressive effect on high-fat diet-induced insulin resistance
same,mortality,rats [8],did not cause mortality
"CC[C@H]1[C@@H](O)[C@@H]2[C@H](CC[C@]3(C)[C@@H]([C@H](C)CCC(=O)O)CC[C@@H]23)[C@@]2(C)CC[C@@H](O)C[C@@H]12 [Obeticholic acid, obeticholic acid]",total cholesterol and LDL cholesterol levels (side effect),[9],increasing total cholesterol and LDL cholesterol levels
same,"dose that aggravated NAFLD (liver fibrosis worsen, ALT level increased)",[10],≥ 40 mg/kg
same,dose causing serious side effects such as death of animals,CD-1(ICR) mice,≥ 175 mg/kg
